Columns and labels:
[1] = target: Norepinephrine transporter (Rattus norvegicus, UniProt Q9WTR4); experiment: Binding affinity towards Norepinephrine transporter was determined using NE[3H]Nisoxetine as radioligand
[2] = target: Sodium-dependent dopamine transporter (Rattus norvegicus, UniProt P23977); experiment: Binding affinity towards dopamine transporter was determined using DA[3H]WIN-35428 as radioligand
[3] = target: Monoamine transporters; serotonin & dopamine (Homo sapiens) (UniProt P31645+Q01959); experiment: Ratio of IC50 of 5-hydroxy tryptamine to dopamine; type: protein assay
[4] = target: Sodium-dependent serotonin transporter (Rattus norvegicus, UniProt P31652); experiment: Binding affinity towards Serotonin transporter was determined using 5-HT [3H]paroxetine as radioligand
[5] = Ratio of IC50 of norepinephrine to dopamine

Monoamine transporters; serotonin & dopamine (Homo sapiens), sequence (P31645 whole entry, looked up): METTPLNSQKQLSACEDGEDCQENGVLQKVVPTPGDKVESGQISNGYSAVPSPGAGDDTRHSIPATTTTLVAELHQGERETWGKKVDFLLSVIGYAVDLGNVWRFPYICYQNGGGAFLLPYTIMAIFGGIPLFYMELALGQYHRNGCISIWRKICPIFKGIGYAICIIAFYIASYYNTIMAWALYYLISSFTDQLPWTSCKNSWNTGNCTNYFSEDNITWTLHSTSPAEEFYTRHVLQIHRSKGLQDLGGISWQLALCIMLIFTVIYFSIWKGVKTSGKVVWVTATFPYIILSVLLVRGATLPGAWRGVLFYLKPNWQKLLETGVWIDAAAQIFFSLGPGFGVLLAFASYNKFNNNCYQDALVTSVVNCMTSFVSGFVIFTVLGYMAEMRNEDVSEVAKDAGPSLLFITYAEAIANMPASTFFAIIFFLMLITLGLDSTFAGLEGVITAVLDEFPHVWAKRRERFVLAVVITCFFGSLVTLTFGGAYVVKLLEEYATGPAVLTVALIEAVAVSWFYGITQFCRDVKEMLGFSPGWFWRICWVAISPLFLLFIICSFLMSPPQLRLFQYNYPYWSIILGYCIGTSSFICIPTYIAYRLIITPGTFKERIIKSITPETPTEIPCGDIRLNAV
Monoamine transporters; serotonin & dopamine (Homo sapiens), sequence (Q01959 whole entry, looked up): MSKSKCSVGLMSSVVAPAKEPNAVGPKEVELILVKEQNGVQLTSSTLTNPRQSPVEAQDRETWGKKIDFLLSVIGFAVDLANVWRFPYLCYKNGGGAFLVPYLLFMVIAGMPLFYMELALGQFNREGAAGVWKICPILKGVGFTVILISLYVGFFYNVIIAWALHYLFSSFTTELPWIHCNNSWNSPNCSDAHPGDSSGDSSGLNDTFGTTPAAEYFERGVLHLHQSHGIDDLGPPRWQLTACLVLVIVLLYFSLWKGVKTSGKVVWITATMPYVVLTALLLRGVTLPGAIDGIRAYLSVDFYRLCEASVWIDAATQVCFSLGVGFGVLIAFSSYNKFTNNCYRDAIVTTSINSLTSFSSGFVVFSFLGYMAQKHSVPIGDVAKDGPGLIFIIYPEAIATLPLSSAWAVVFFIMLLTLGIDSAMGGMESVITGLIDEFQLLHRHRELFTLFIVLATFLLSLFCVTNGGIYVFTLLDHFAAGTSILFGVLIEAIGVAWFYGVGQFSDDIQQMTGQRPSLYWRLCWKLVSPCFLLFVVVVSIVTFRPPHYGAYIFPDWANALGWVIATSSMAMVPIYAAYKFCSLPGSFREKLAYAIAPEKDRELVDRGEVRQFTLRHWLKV
Norepinephrine transporter, sequence (Q9WTR4 whole entry): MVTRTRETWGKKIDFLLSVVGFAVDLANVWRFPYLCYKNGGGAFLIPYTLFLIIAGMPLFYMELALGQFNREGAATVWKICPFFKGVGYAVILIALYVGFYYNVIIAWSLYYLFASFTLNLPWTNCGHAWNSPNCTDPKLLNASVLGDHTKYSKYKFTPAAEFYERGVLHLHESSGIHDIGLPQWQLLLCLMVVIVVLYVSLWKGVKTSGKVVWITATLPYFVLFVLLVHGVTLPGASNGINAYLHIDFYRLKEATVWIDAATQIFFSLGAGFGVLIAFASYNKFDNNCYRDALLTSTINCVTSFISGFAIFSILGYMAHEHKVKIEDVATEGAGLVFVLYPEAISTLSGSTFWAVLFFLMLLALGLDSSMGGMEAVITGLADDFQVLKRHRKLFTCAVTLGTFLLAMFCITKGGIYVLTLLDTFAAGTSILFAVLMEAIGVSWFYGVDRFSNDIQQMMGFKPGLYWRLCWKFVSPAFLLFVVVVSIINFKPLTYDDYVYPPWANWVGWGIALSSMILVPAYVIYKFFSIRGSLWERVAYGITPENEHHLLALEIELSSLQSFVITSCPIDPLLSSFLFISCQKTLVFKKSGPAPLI
Sodium-dependent dopamine transporter, sequence (P23977 whole entry): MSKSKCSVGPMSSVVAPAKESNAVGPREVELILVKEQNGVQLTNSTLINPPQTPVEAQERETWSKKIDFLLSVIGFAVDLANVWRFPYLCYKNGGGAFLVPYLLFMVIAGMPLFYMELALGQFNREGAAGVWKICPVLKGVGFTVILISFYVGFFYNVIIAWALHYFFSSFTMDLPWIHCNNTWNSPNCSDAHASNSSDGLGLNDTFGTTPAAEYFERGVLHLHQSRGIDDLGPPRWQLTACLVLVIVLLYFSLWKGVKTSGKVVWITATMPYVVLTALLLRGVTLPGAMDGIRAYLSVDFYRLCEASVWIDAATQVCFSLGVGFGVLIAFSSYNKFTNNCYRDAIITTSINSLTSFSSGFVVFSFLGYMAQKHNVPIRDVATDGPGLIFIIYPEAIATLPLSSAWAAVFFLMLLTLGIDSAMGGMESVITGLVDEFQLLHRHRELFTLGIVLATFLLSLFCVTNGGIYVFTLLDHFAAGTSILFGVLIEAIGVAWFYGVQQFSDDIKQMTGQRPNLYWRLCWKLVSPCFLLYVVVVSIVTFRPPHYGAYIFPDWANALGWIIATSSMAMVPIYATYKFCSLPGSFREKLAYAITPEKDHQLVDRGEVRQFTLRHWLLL
Sodium-dependent serotonin transporter, sequence (P31652 whole entry): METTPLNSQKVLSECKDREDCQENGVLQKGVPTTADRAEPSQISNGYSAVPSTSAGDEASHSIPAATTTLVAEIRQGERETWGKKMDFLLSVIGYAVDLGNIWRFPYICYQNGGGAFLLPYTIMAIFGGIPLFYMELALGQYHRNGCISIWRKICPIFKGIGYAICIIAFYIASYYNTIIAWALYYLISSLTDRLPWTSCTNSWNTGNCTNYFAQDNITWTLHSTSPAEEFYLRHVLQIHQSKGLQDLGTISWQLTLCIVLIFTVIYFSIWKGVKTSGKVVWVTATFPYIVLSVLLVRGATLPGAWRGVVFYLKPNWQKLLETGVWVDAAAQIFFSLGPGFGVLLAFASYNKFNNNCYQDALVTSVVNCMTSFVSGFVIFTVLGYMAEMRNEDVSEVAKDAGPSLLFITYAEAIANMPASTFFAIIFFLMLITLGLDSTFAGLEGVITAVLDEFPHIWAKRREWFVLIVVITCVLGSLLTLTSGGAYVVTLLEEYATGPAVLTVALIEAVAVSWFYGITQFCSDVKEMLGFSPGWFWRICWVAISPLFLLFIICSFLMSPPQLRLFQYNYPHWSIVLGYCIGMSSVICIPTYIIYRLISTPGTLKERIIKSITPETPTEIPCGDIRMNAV

Row | Structure (SMILES) | IC50 [1] | IC50 [2] | Ratio [3] | IC50 [4] | Ratio [5]
1 | CN1C2CC[C@@H]1C[C@H](c1ccc(Cl)cc1)C2c1cc(-c2ccccc2)no1 (some centres undefined) | 504 nM | 1.28 nM | 1890 | 2420 nM | 394
2 | CN1C2CCC1C(c1nc(-c3ccccc3)no1)C(c1ccc(Cl)cc1)C2 (centres undefined) | 245 nM | 1.62 nM | 120 |  | 151
3 | CN1C2CCC1C(c1nnc(-c3ccccc3)o1)C(c1ccc(Cl)cc1)C2 (centres undefined) | 929 nM | 12.6 nM | 262 |  | 74
4 | CN1C2CCC1C(C(=O)Oc1ccccc1)C(c1ccc(Cl)cc1)C2 (centres undefined) |  |  | 1180 |  | 1490
5 | CN1C2CCC1C(c1ncc(-c3ccccc3)o1)C(c1ccc(Cl)cc1)C2 (centres undefined) | 496 nM | 19.7 nM | 57 |  | 25

— ChEMBL document CHEMBL1128533, “Synthesis and ligand binding study of 3 beta-(4'-substituted phenyl)-2 beta-(heterocyclic)tropanes” (J Med Chem, 1995)
